Measured values taken from US8513227B2, “Inhibition of inflammatory cytokine production with tanshinones” (The Feinstein Institute for Medical Research, priority 2006, dated 2013).

Experiments:
[1] = system: nitric oxide; assay: LPS-induced nitric oxide release (Griess reaction); format: cell-based, murine; settings: 100 μM, FIG. 2A lower panel
Experimental: LPS stimulation. Adherent macrophages or monocytes were gently washed with, and cultured in, serum-free OPTI-MEM I medium two hours before stimulation with bacterial endotoxin (lipopolysaccharide, LPS, E. coli 0111:B4, Sigma-Aldrich). At 16 hours after LPS stimulation, levels of HMGB1 in the culture medium were determined as previously described (Chen et al. 2004; Rendon-Mitchell et al. 2003; Wang et al. 1999).
Nitric oxide assay. The levels of nitric oxide in the culture medium were determined indirectly by measuring NO^2− production with a colorimetric assay based on the Griess reaction (Rendon-Mitchell et al. 2003). NO2-concentrations were determined with reference to a standard curve generated with sodium nitrite at various dilutions.

[2] = system: TNF; assay: LPS-mediated TNF secretion in RAW 264.7 macrophages (ELISA); format: cell-based, murine; settings: macrophages stimulated with LPS >200 ng/ml
Experimental: Cell culture. Murine macrophage-like RAW 264.7 cells were obtained from the American Type Culture Collection (ATCC, Rockville, Md.), and primary peritoneal macrophages were isolated from Balb/C mice (male, 7-8 weeks, 20-25 grams) at 2-3 days after intraperitoneal injection of 2 ml thioglycollate broth (4%) as previously described (Chen et al. 2004; Rendon-Mitchell et al. 2003). Murine macrophages were pre-cultured in RPMI 1640 medium (Gibco BRL, Grand Island, N.Y.) supplemented with 10% fetal bovine serum (FBS) and 2 mmol/L glutamine. Human peripheral blood mononuclear cells (HuPBMCs) were isolated from the blood of healthy donors (Long Island Blood Bank, Melville, N.Y.) by density gradient centrifugation through Ficoll (Ficoll-Paque PLUS, Pharmacia, Piscataway, N.J.), and cultured in RPMI 1640 supplemented with 10% heat-inactivated human serum/0.2 mM L-glutamine as previously described (Rendon-Mitchell et al. 2003). LPS stimulation. […] The levels of TNF in the culture medium or serum were determined using commercial enzyme linked immunosorbent assay (ELISA) kits (Catalog no. MTA00, R & D Systems, Minneapolis, Minn.) with reference to standard curves of purified recombinant TNF at various dilutions as previously described (Chen et al. 2004; Rendon-Mitchell et al. 2003; Wang et al. 2006).

SMILES: Cc1c(S(=O)(=O)[O-])oc2c1C(=O)C(=O)c1c-2ccc2c1CCCC2(C)C.[Na+] [TSNIIA-SS, tanshinone IIA sodium sulfonate]
- effect on LPS-induced release of nitric oxide [1]: did not completely block
- inhibitory effects on TNF release at higher LPS [2]: often lost
